In publication PMC9848300, “Discovery of novel enasidenib analogues targeting inhibition of mutant isocitrate dehydrogenase 2 as antileukaemic agents” (Journal of Enzyme Inhibition and Medicinal Chemistry, 2023):
Where two headings read alike, the source gives them in different places.

Experiments:
CCRF-CEM = test: NCI 60 antitumor screening (single dose / five doses); format: cell-based; settings: Homo sapiens, read-out: Growth inhibition percentage (GI %)
SF-539 = test: as above; format: cell-based; settings: Homo sapiens
BT-549 = test: as above; format: cell-based; settings: Homo sapiens
HL-60(TB) = test: as above; format: cell-based; settings: Homo sapiens
UACC-62 = test: as above; format: cell-based; settings: Homo sapiens
RXF 393 = test: as above; format: cell-based; settings: Homo sapiens
786-0 = test: as above; format: cell-based; settings: Homo sapiens
UO-31 = test: as above; format: cell-based; settings: Homo sapiens
RPMI-8226 = test: as above; format: cell-based; settings: Homo sapiens
HCT-15 = test: as above; format: cell-based; settings: Homo sapiens
HT29 = test: as above; format: cell-based, human; settings: Homo sapiens
NCI-H23 = test: NCI 60 antitumor screening (single dose); format: cell-based; settings: Homo sapiens; NCI-H23 (non-small cell lung cancer), single dose 10 μM; read-out: Growth inhibition percentage (GI %)
Method in brief: (§1)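 Under the NCI Drug Evaluation Branch protocol, each compound is screened at one 10 μM concentration on the 60-line human tumour panel. Growth of treated cells is expressed as G%, and inhibition is reported as 100 − G%.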

A549/ATCC = test: NCI 60 antitumor screening (single dose); format: cell-based; settings: Homo sapiens; A549/ATCC (non-small cell lung cancer), single dose 10 μM; read-out: Growth inhibition percentage (GI %)
Method in brief: (§2)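 Test compound added at 10 μM to each of 60 human cancer lines from nine tumour types; growth measured per NCI protocol in triplicate; percent growth converted to inhibition (100 − G%).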

NCI-H522 = test: NCI 60 antitumor screening (single dose); format: cell-based; settings: Homo sapiens; NCI-H522 (non-small cell lung cancer), single dose 10 μM; read-out: Growth inhibition percentage (GI %)
Method in brief: as §1

CAKI-1 = test: NCI 60 antitumor screening (single dose); format: cell-based; settings: Homo sapiens
Method in brief: as §2

SF-268 = test: NCI 60 antitumor screening (single dose); format: cell-based; settings: Homo sapiens; SF-268 (CNS cancer), single dose 10 μM; read-out: Growth inhibition percentage (GI %)
Method in brief: as §1

MCF7 = test: NCI 60 antitumor screening (single dose); format: cell-based; settings: Homo sapiens
Method in brief: as §2

NCI-H322M = test: NCI 60 antitumor screening (single dose); format: cell-based; settings: Homo sapiens; NCI-H322M (non-small cell lung cancer), single dose 10 μM; read-out: Growth inhibition percentage (GI %)
Method in brief: as §2

M14 = test: NCI 60 antitumor screening (single dose); format: cell-based; settings: Homo sapiens
Method in brief: as §2

SNB-75 = test: NCI 60 antitumor screening (single dose / five doses); format: cell-based; settings: Homo sapiens
SK-MEL-5 = test: as above; format: cell-based; settings: Homo sapiens
A498 = test: as above; format: cell-based; settings: Homo sapiens
MOLT-4 = test: as above; format: cell-based; settings: Homo sapiens
MALME-3M = test: as above; format: cell-based; settings: Homo sapiens, read-out: Growth inhibition percentage (GI %)
MDA-MB-435 = test: as above; format: cell-based; settings: Homo sapiens
[1] = test system: 60 human subpanel cancer cell lines; test: NCI 60 antitumor screening, mean over the panel (single dose); format: cell-based; settings: mean over 60 cancer cell lines, single dose 10 μM
Method in brief: as §1

SW-620 = test: NCI 60 antitumor screening (single dose / five doses); format: cell-based, human; settings: Homo sapiens
MDA-MB-231/ATCC = test: as above; format: cell-based; settings: Homo sapiens

`O=[N+]([O-])c1cc(/C=N/Nc2nc(N/N=C/c3ccc(Cl)c([N+](=O)[O-])c3)nc(N3CCOCC3)n2)ccc1Cl` [compound 6i, 2,4-Bis[(E)-2-[(4-Chloro-3-nitrophenyl)methylidene]hydrazin-1-yl]-6-(morpholin-4-yl)-1,3,5-triazine] was tested, and the inhibition at 10 µM (CCRF-CEM; CCRF-CEM) was 12.2%, the inhibition at 10 µM (SF-539; SF-539, read-out: Growth inhibition percentage (GI %)) was 6.38% and the inhibition at 10 µM (BT-549; BT-549, read-out: Growth inhibition percentage (GI %)) was -0.85%. The inhibition at 10 µM (HL-60(TB); HL-60, read-out: Growth inhibition percentage (GI %)) was 13.7%, the inhibition at 10 µM (UACC-62; UACC-62, read-out: Growth inhibition percentage (GI %)) was 9.59% and the inhibition at 10 µM (RXF 393; RXF 393, read-out: Growth inhibition percentage (GI %)) was -20.7%. It also gave an inhibition at 10 µM (786-0; 786-0, read-out: Growth inhibition percentage (GI %)) of -8.76%, an inhibition at 10 µM (UO-31; UO-31, read-out: Growth inhibition percentage (GI %)) of 22.3% and an inhibition at 10 µM (RPMI-8226; RPMI-8226, read-out: Growth inhibition percentage (GI %)) of 42.8%. It also gave an inhibition at 10 µM (HCT-15; HCT-15, read-out: Growth inhibition percentage (GI %)) of 8.38%, an inhibition at 10 µM (HT29; HT-29, read-out: Growth inhibition percentage (GI %)) of -2.29% and an inhibition at 10 µM (NCI-H23) of 3.66%. It also gave an inhibition at 10 µM (A549/ATCC) of -8.71%, an inhibition at 10 µM (NCI-H522) of 0.32% and an inhibition at 10 µM (CAKI-1; CAKI-1, read-out: Growth inhibition percentage (GI %)) of -3.02%. The inhibition at 10 µM (SF-268) was 0.39%, the inhibition at 10 µM (MCF7; MCF7, read-out: Growth inhibition percentage (GI %)) was 56.7% and the inhibition at 10 µM (NCI-H322M) was 2.28%. For the same compound, the inhibition at 10 µM (M14; M14, read-out: Growth inhibition percentage (GI %)) was -11.5%, the inhibition at 10 µM (SNB-75; SNB-75, read-out: Growth inhibition percentage (GI %)) was -7.64% and the inhibition at 10 µM (SK-MEL-5; SK-MEL-5, read-out: Growth inhibition percentage (GI %)) was 3.31%. The inhibition at 10 µM (A498; A498, read-out: Growth inhibition percentage (GI %)) was -10.3%, the inhibition at 10 µM (MOLT-4; MOLT-4, read-out: Growth inhibition percentage (GI %)) was 13.3% and the inhibition at 10 µM (MALME-3M; Malme-3M) was -29.9%. For the same compound, the inhibition at 10 µM (MDA-MB-435; MDA-MB-435, read-out: Growth inhibition percentage (GI %)) was -7.52%, the “Mean GI %” value [1] was 0.67% and the inhibition at 10 µM (SW-620; SW-620, read-out: Growth inhibition percentage (GI %)) was -6.94%. The inhibition at 10 µM (MDA-MB-231/ATCC; MDA-MB-231, read-out: Growth inhibition percentage (GI %)) was 3.16%.

`Oc1ccc(/C=N/Nc2nc(N/N=C/c3ccc(O)c(O)c3)nc(N3CCOCC3)n2)cc1O` [compound 6j, 4-[(1e)-(2-{4-[(E)-2-[(3,4-Dihydroxyphenyl)methylidene]hydrazin-1-yl]-6-(morpholin-4-yl)-1,3,5-triazin-2-yl}hydrazin-1-ylidene)methyl]benzene-1,2-diol] showed an inhibition at 10 µM (CCRF-CEM; CCRF-CEM (leukaemia), single dose 10 μM) of -2.09%, an inhibition at 10 µM (SF-539; SF-539 (CNS cancer), single dose 10 μM, read-out: Growth inhibition percentage (GI %)) of -3.18% and an inhibition at 10 µM (BT-549; BT-549 (breast cancer), single dose 10 μM, read-out: Growth inhibition percentage (GI %)) of -9.12%. It also gave an inhibition at 10 µM (HL-60(TB); HL-60(TB) (leukaemia), single dose 10 μM, read-out: Growth inhibition percentage (GI %)) of 0.38%, an inhibition at 10 µM (UACC-62; UACC-62 (melanoma), single dose 10 μM, read-out: Growth inhibition percentage (GI %)) of 2.19% and an inhibition at 10 µM (RXF 393; RXF 393 (renal cancer), single dose 10 μM, read-out: Growth inhibition percentage (GI %)) of -20.4%. For the same compound, the inhibition at 10 µM (786-0; 786-0, 786-0 (renal cancer), single dose 10 μM, read-out: Growth inhibition percentage (GI %)) was -3.75%, the inhibition at 10 µM (UO-31; UO-31 (renal cancer), single dose 10 μM, read-out: Growth inhibition percentage (GI %)) was 15.4% and the inhibition at 10 µM (RPMI-8226; RPMI-8226 (leukaemia), single dose 10 μM, read-out: Growth inhibition percentage (GI %)) was -3.09%. The inhibition at 10 µM (HCT-15; HCT-15 (colon cancer), single dose 10 μM, read-out: Growth inhibition percentage (GI %)) was -2.93%, the inhibition at 10 µM (HT29; HT-29, HT29 (colon cancer), single dose 10 μM, read-out: Growth inhibition percentage (GI %)) was -12% and the inhibition at 10 µM (NCI-H23) was 0.57%. It also gave an inhibition at 10 µM (A549/ATCC) of 1.02%, an inhibition at 10 µM (NCI-H522) of 3.1% and an inhibition at 10 µM (CAKI-1; CAKI-1 (renal cancer), single dose 10 μM, read-out: Growth inhibition percentage (GI %)) of 0.69%. The inhibition at 10 µM (SF-268) was -2.53%, the inhibition at 10 µM (MCF7; MCF7 (breast cancer), single dose 10 μM, read-out: Growth inhibition percentage (GI %)) was 5.79% and the inhibition at 10 µM (NCI-H322M) was 9.4%. For the same compound, the inhibition at 10 µM (M14; M14 (melanoma), single dose 10 μM, read-out: Growth inhibition percentage (GI %)) was -4.69%, the inhibition at 10 µM (SNB-75; SNB-75 (CNS cancer), single dose 10 μM, read-out: Growth inhibition percentage (GI %)) was -1.54% and the inhibition at 10 µM (SK-MEL-5; SK-MEL-5 (melanoma), single dose 10 μM, read-out: Growth inhibition percentage (GI %)) was 2.65%. The inhibition at 10 µM (A498; A498 (renal cancer), single dose 10 μM, read-out: Growth inhibition percentage (GI %)) was 2.87%, the inhibition at 10 µM (MOLT-4; MOLT-4 (leukaemia), single dose 10 μM, read-out: Growth inhibition percentage (GI %)) was -1.68% and the inhibition at 10 µM (MALME-3M; MALME-3M (melanoma), single dose 10 μM) was -4.04%. For the same compound, the inhibition at 10 µM (MDA-MB-435; MDA-MB-435 (melanoma), single dose 10 μM, read-out: Growth inhibition percentage (GI %)) was -3.12%, the “Mean GI %” value [1] was -2.12% and the inhibition at 10 µM (SW-620; SW-620 (colon cancer), single dose 10 μM, read-out: Growth inhibition percentage (GI %)) was -3.6%. It also gave an inhibition at 10 µM (MDA-MB-231/ATCC; MDA-MB-231/ATCC (breast cancer), single dose 10 μM, read-out: Growth inhibition percentage (GI %)) of 1.27%.
